From patent US10759781B2, “Substituted guanidine derivatives” (UBE INDUSTRIES, LTD., priority 2015, dated 2020) come the findings set out here.

Where a name gives a salt, the structure may show the parent alone. Bounds are passed on as bounds.

For the first assay, the target named is T1, Rat Plasma VAP-1 (Rattus norvegicus, UniProt O08590).
T1 construct: from tissue; host or cells: plasma of SD male rats (7-12 weeks old) after oral dosing
T1 sequence (O08590 28-763 limits assumed): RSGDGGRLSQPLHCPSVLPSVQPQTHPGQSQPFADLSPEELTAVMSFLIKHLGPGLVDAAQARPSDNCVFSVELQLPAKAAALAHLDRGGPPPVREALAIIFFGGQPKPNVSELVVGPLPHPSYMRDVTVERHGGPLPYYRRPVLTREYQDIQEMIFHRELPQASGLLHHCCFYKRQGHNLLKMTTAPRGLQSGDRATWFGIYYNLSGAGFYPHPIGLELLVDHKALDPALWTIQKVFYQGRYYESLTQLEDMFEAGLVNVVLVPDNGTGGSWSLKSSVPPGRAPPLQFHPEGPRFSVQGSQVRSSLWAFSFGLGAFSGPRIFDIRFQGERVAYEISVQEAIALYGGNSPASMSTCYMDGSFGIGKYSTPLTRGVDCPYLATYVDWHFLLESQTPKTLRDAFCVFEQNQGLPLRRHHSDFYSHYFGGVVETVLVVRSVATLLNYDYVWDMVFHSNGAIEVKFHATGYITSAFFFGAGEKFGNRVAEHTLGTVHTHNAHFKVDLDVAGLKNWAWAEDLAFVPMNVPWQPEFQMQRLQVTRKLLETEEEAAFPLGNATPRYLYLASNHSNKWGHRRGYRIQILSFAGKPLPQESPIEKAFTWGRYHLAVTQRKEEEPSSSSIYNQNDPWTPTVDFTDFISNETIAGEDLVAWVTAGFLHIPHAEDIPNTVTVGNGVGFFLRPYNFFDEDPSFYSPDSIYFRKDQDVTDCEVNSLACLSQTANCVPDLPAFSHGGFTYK
Description: (Ex vivo) rat plasma VAP-1 inhibition test after oral administration of the compound. In kind it is in vivo. The following applies: 3 hours after oral administration, SD male rats, read-out: inhibition ratio (plasma VAP-1, ex vivo). How it is done: (Ex Vivo) Rat Plasma VAP-1 Inhibition Test after Oral Administration of the Compound
The compound was orally administered (0.3-10 mg/kg) to 7-12 week old SD male rats in the non-fasting state. Under anesthesia, the blood was collected in heparin tubes from the jugular vein before the administration and 3, 8 and 24 hours after the administration. The blood was centrifuged at 14000 rpm for 10 minutes to get plasma. The VAP-1 enzyme activity in the plasma was measured by radiochemical enzyme assay.
The radiochemical enzyme assay was conducted by modifying the method of P. H. Yu et al. (Diabetologia 40 1243 (1997)). ^14C-benzylamine (2.5 μM) was added to the obtained plasma, and was incubated at 37° C. for 3 hours. The reaction was terminated by the addition of 100 μL of 2 M citric acid solution to the reaction solution. The oxidative product was extracted using a toluene/ethyl acetate mixture and the radioactivity was measured with a liquid scintillation counter. The inhibition ratio of the compound was calculated using the following equation. Inhibition ratio={1−[Plasma VAP-1 activity after administration of the compound]/[Plasma VAP-1 activity before administration]}×100
With `CON=C1CCN(c2ncc(-c3cccc(COC(=O)NC(=N)N)c3F)cn2)CC1` [Example 51, 2-Fluoro-3-{2-[4-(methoxyimino)piperidin-1-yl]pyrimidin-5-yl}benzyl carbamimidoylcarbamate], the inhibition in vivo at 0.3 mg/kg was at least 50%.
As to `CCON=C1CCN(c2ncc(-c3cccc(COC(=O)NC(=N)N)c3F)cn2)CC1` [Example 53, 3-{2-[4-(Ethoxyimino)piperidin-1-yl]pyrimidin-5-yl}-2-fluorobenzyl carbamimidoylcarbamate], the inhibition in vivo at 0.3 mg/kg was at least 50%.

For the next assay, the target named is T2, Human VAP-1 enzyme (Homo sapiens, UniProt Q16853).
T2 construct: purchased R&D Systems, Inc
T2 sequence (Q16853 1-763): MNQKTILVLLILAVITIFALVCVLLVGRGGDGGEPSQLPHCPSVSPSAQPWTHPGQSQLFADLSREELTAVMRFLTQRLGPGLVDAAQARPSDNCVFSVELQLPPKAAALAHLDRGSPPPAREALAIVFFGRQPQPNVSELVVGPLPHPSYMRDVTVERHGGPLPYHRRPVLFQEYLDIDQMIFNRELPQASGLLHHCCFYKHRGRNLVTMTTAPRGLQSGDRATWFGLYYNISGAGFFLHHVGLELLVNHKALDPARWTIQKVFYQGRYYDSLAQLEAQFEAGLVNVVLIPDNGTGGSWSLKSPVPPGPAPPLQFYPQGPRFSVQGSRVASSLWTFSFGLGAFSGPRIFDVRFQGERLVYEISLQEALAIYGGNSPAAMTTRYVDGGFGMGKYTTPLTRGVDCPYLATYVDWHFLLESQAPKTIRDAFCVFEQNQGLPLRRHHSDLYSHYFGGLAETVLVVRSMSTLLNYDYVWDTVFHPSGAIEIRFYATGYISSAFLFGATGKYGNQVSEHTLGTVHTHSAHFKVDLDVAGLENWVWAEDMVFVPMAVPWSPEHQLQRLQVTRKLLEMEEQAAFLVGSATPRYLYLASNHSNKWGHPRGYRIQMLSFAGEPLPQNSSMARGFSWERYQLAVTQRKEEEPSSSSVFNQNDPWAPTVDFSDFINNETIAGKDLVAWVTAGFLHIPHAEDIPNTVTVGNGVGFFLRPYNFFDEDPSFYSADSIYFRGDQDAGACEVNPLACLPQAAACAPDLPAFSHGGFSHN
Description: Human VAP-1 enzyme inhibition test. In kind it is biochemical. The following applies: 1 h; compound 30 nM; 14C-benzylamine 100 μM; read-out: inhibition ratio (human VAP-1 enzyme). As for the experimental part:
Human VAP-1 enzyme inhibition test
This test was conducted by modifying the method of P. H. Yu et al. (Diabetologia 40 1243 (1997)). Human VAP-1 enzyme (R&D Systems, Inc.) was pre-incubated in a 96-well plate with the compound dissolved in dimethylsulfoxide at room temperature for 20 minutes. Next, in a solution to the final volume of 200 μL, the enzyme reaction solution was incubated with ^14C-benzylamine (final concentration 100 μM) at 37° C. for 1 hour. The reaction was terminated by the addition of 100 μL of 2 M citric acid solution to the reaction solution. The oxidative product was extracted using a toluene/ethyl acetate mixture and the radioactivity was measured with a liquid scintillation counter. The inhibition ratio of the compound was calculated using the following equation. Inhibition ratio={1−[VAP-1 enzyme activity after treatment with the compound]/[VAP-1 enzyme activity in the presence of dimethylsulfoxide alone without the compound]}×100
Regarding `N=C(N)NC(=O)OCc1cccc(-c2cnc(N3CC(=NOC4CN(CCF)C4)C3)nc2)c1F` [Example 148, 2-Fluoro-3-{2-[3-({[1-(2-fluoroethyl)azetidin-3-yl]oxy}imino)azetidin-1-yl]pyrimidin-5-yl}benzyl carbamimidoylcarbamate], the inhibition at 0.03 µM was at least 50%.
Turning to `CCOC(=O)CCCON=C1CCN(c2ncc(-c3cccc(COC(=O)NC(=N)N)c3F)cn2)CC1` [Example 152, Ethyl 4-[({1-[5-(3-{[(carbamimidoylcarbamoyl)oxy]methyl}-2-fluorophenyl)pyrimidin-2-yl]piperidin-4-ylidene}amino)oxy]butanoate], the inhibition at 0.03 µM was at least 50%.
In the case of `CN(CCON=C1CCN(c2ncc(-c3cccc(COC(=O)NC(=N)N)c3F)cn2)CC1)S(C)(=O)=O` [Example 157, 2-Fluoro-3-[2-(4-{[2-(N-methylmethylsulfonamido)ethoxy]imino}piperidin-1-yl)pyrimidin-5-yl]benzyl carbamimidoylcarbamate hydrochloride], the inhibition at 0.03 µM is at least 50%.
For `CNCCON=C1CCN(c2ncc(-c3cccc(COC(=O)NC(=N)N)c3F)cn2)CC1` [Example 162, 2-Fluoro-3-[2-(4-{[2-(methylamino)ethoxy]imino}piperidin-1-yl)pyrimidin-5-yl]benzyl carbamimidoylcarbamate dihydrochloride], the inhibition at 0.03 µM was at least 50%.
Regarding `N=C(N)NC(=O)OCc1cccc(-c2cnc(N3CCC(=NOCCN)CC3)nc2)c1F` [Example 164, 3-(2-{4-[(2-Aminoethoxy)imino]piperidin-1-yl}pyrimidin-5-yl)-2-fluorobenzyl carbamimidoylcarbamate], the inhibition at 0.03 µM is at least 50%.
Turning to `N=C(N)NC(=O)OCc1cccc(-c2cnc(N3CCC(=NOCc4cnn(C5CCCCO5)c4)CC3)nc2)c1F` (stereo not shown) [Example 172, 2-Fluoro-3-{2-[4-({[1-(tetrahydropyran-2-yl)-1H-pyrazol-4-yl]methoxy}imino)piperidin-1-yl]pyrimidin-5-yl}benzyl carbamimidoylcarbamate], the inhibition at 0.03 µM is at least 50%.
Turning to `N=C(N)NC(=O)OCc1cccc(-c2cnc(N3CCC(=NOCCN4CCOC4=O)CC3)nc2)c1F` [Example 179, 2-Fluoro-3-[2-(4-{[2-(2-oxooxazolidin-3-yl)ethoxy]imino}piperidin-1-yl)pyrimidin-5-yl]benzyl carbamimidoylcarbamate], the inhibition at 0.03 µM was at least 50%.
On the same count and under the same terms, the result for `N=C(N)NC(=O)OCc1cccc(-c2cnc(N3CCC(=NOCCN4CCOCC4=O)CC3)nc2)c1F` [Example 180, 2-Fluoro-3-[2-(4-{[2-(3-oxomorpholino)ethoxy]imino}piperidin-1-yl)pyrimidin-5-yl]benzyl carbamimidoylcarbamate] reads at least 50%; that for `CON=C1CN(c2ncc(-c3cccc(COC(=O)NC(=N)N)c3F)cn2)C1` [Example 184, 2-Fluoro-3-{2-[3-(methoxyimino)azetidin-1-yl]pyrimidin-5-yl}benzyl carbamimidoylcarbamate 1/2 L-tartrate], at least 50%; that for `CCON=C1CN(c2ncc(-c3cccc(COC(=O)NC(=N)N)c3F)cn2)C1` [Example 188, 3-{2-[3-(Ethoxyimino)azetidin-1-yl]pyrimidin-5-yl}-2-fluorobenzyl carbamimidoylcarbamate 1/2 L-tartrate], at least 50%.
For `O=C(O)C(O)C(O)C(=O)O.[2H]C([2H])([2H])ON=C1CN(c2ncc(-c3cccc(COC(=O)NC(=N)N)c3F)cn2)C1` [Example 192, 2-Fluoro-3-(2-{3-[(methoxy-d3)imino]azetidin-1-yl}pyrimidin-5-yl)benzyl carbamimidoylcarbamate 1/2 L-tartrate], the inhibition at 0.03 µM was at least 50%.
Take `O=C(O)/C=C\C(=O)O.[2H]C([2H])([2H])ON=C1CN(c2ncc(-c3cccc(COC(=O)NC(=N)N)c3F)cn2)C1` [Example 194, 2-Fluoro-3-(2-{3-[(methoxy-d3)imino]azetidin-1-yl}pyrimidin-5-yl)benzyl carbamimidoylcarbamate maleate]: the inhibition at 0.03 µM was at least 50%.
As for `O=C(O)CCC(=O)O.[2H]C([2H])([2H])ON=C1CN(c2ncc(-c3cccc(COC(=O)NC(=N)N)c3F)cn2)C1` [Example 195, 2-Fluoro-3-(2-{3-[(methoxy-d3)imino]azetidin-1-yl}pyrimidin-5-yl)benzyl carbamimidoylcarbamate 1/2 succinate], the inhibition at 0.03 µM was at least 50%.
As to `N=C(N)NC(=O)OCc1cccc(-c2cnc(N3CC(=NOCCF)C3)nc2)c1F` [Example 196, 2-Fluoro-3-(2-{3-[(2-fluoroethoxy)imino]azetidin-1-yl}pyrimidin-5-yl)benzyl carbamimidoylcarbamate 1/2 L-tartrate], the inhibition at 0.03 µM is at least 50%.
On the same count and under the same terms, the result for `O=C(O)C(O)C(O)C(=O)O.[2H]C([2H])([2H])ON=C1CN(c2ncc(-c3cccc(COC(=O)NC(=N)N)c3F)cc2F)C1` [Example 204, 2-Fluoro-3-(5-fluoro-6-{3-[(methoxy-d3)imino]azetidin-1-yl}pyridin-3-yl)benzyl carbamimidoylcarbamate 1/2 L-tartrate] reads at least 50%; that for `O=C(O)/C=C\C(=O)O.[2H]C([2H])([2H])ON=C1CN(c2ncc(-c3cccc(COC(=O)NC(=N)N)c3F)cc2F)C1` [Example 206, 2-Fluoro-3-(5-fluoro-6-{3-[(methoxy-d3)imino]azetidin-1-yl}pyridin-3-yl)benzyl carbamimidoylcarbamate maleate], at least 50%.
With `O=C(O)CCC(=O)O.[2H]C([2H])([2H])ON=C1CN(c2ncc(-c3cccc(COC(=O)NC(=N)N)c3F)cc2F)C1` [Example 207, 2-Fluoro-3-(5-fluoro-6-{3-[(methoxy-d3)imino]azetidin-1-yl}pyridin-3-yl)benzyl carbamimidoylcarbamate 1/2 succinate], the inhibition at 0.03 µM was at least 50%.
